Entries after “also recorded” stand apart in the source; their conditions may differ.
Key:
[1] = system: normal cardiac fibroblasts; assay: Phototoxic effect under blue light exposure during time-lapse imaging, normal cells; assay type: cell-based, rat
Procedure: (§1) Cells growing in the Matra-Tek dishes were maintained in an environmental chamber (37° C. and 5% CO2 atmosphere) mounted on the stage of a Zeiss inverted fluorescence microscope equipped with a CARV spinning disk confocal attachment. B16 cells were imaged using a Zeiss 63× oil NA=1.4 apochromatic objective, which gave an image field of 7265.15 μm^2. Cardiac Fibroblasts were imaged using a Zeiss 40× oil 1.0 NA apochromatic objective, which gave an image field of 18,006.85 μm^2. The images were captured using a CCD camera (Hamamatsu ORCA-ER) controlled by Kinetic Imaging Image Acquisition Software (AQM Advance-6) software. All images were recorded at a constant exposure (385 ms) using a DAPI (360/460) filter set, which isolates the natural fluorescence of the compound.
(§2) The cells were maintained in 1 ml of tissue culture medium and allowed equilibrate in the environmental chamber, before imaging of the selected group of cells was initiated. […] The rate of entry of the drug into the cells was determined by high-speed image collection (1 sec interval, 60 exposures per min). The equilibrium-concentration uptake of the drug was determined by slow-speed time-lapse imaging (10 sec intervals, 6 exposures per min) collected for a minimum of 30 minutes. In all experiments, images were recorded prior to addition of the drug to provide a negative control of any auto-fluorescence present in the cells. […]

[2] = system: normal cardiac fibroblasts; assay: Confocal time-lapse fluorescence imaging of drug uptake (IOD) in normal cardiac fibroblasts; assay type: cell-based, rat; details: 400 nM
Procedure: as §1, §2
FC101 is a naturally fluorescent molecule and its movements, accumulation and distribution within living cells can be followed and analyzed in real-time or by time-lapse imaging. Cellular uptake of the drug was analyzed using the integrated morphometry subroutine of MetaMorph 6.1 (MDS Analytical Technologies). […] The drug fluorescence in the cytoplasm of the cells was thresholded as a region of interest and the integrated optical density (IOD) of the drug fluorescence was measured for all cells in the field at each time point. Values of image brightness, contrast and gamma function were kept constant for all image measurements of drug fluorescence. […]

[3] = Experimental physicochemical properties of FC101 (pKa, structural counts; Table 1)
B16 melanoma cells [4] = assay: Confocal time-lapse fluorescence imaging of drug uptake (IOD) in B16 melanoma cells; assay type: cell-based, mouse; details: 400 nM
Procedure: as §1, §2

[5] = Experimental Log P, shaken-flask method (n-octanol/water adjusted to pH 10); assay type: physicochemical
Procedure: The shaken-flask method was also used to determine the experimental non-ionized partition coefficient for FC101. The same procedure used in the experimental determination of Log D for FC101 was used to determine the Log P with the exception that double-distilled water adjusted to pH 10 with 1 mM NaOH was used instead of the phosphate buffer. The log P was calculated using: Log10 P=Log10([FC101uncharged]oct/[FC101uncharged]wat) Imaging of Drug Uptake: […]

B16 melanoma cells [6] = assay: Phototoxic effect under blue light exposure during time-lapse imaging, transformed cells; assay type: cell-based, mouse; details: transformed cells loaded with FC101
Procedure: as §1, §2

B-16 melanoma cells = assay: Cell growth inhibition, MTT assay; assay type: cell-based, mouse; details: B-16 melanoma cells compared to normal cardiac fibroblasts
Procedure: Cells were plated in a 96 well format containing 100 μl per well of appropriate media at a density of 2.5×10^4 cells/ml, and incubated at 37° C. with 5% CO2. After a 24 h attachment period, the cells were treated in sextuplicate with 100 μl per well of varying concentrations (0 to 10 μM) of FC101. Final volume in each well was 200 μl. Cell proliferation was then determined by the MTT assay after 48 hr incubation period^8. Briefly, 20 μl of a 5 mg/ml solution of MTT (dissolved in HBS) was added to each well. After 4.5 hr incubation at 37° C., the media were then removed and the insoluble mitochondrial-converted dye was solubilized in 100 μl of DMSO. The plates were placed on a shaker for 30 min to ensure that all of the dye was in solution and then read on a (Spectra Max plus 384, Molecular Devices) microplate reader at […]. The background absorbency at 640 nM was subtracted from the 570 nM value before calculating the GI50.

[7] = Experimental Log D, shaken-flask method (n-octanol/phosphate buffer); assay type: physicochemical; details: pH 7.6
Procedure: The shaken-flask method with n-octanol/phosphate buffer was used to determine the experimental ionized partition coefficient for FC101^10. Briefly, 50 ml each of n-octanol and 0.1 M phosphate buffer (at appropriate pH) were added to a 125 ml flask and placed on a mechanical shaker at room temperature for 24 hours to ensure saturation of each phase. The phases were then separated by centrifugation (Damon IEC HN-SII) at 2000 rpm for 30 min. After separation, aliquots (1 ml) were taken from each phase and were placed in separate vials. A small sample (45.5 μl) of a stock solution of 10 mM FC101 in water was added to the aqueous phase. […] The n-octanol was separated from the phosphate buffer and the absorbance at 385 nm (Shimadzu UV 1601) was then used to determine the concentration of FC101 in each phase. The partition coefficient was calculated using the following equation: Log10 D=([FC101charged+uncharged]oct[FC101charged+uncharged]buf) Experimental Log P for FC101
The shaken-flask method with n-octanol/phosphate buffer was used to determine the experimental ionized partition coefficient for FC101^10. […] The n-octanol was separated from the phosphate buffer and the absorbance at 385 nm (Shimadzu UV 1601) was then used to determine the concentration of FC101 in each phase. […]

CC1(C)CC(=O)c2c(ccc(C(=O)CC(N)CO)c2N)O1 (racemic) [FC101, 5-amino-2,2-dimethyl-6-[3′-(R,S)amino-4′-hydroxy-butan-1-one]-2,3-dihydro-4H-1-benzopyran-4-one]
Cell death (phototoxic effect) on blue light exposure [1]: do not exhibit this effect; also recorded: ineffectiveness | Uptake of FC101 (intracellular fluorescence) ([2]; 10 sec after addition (less than a minute)): No incorporation; also recorded: no uptake of FC101 | Uptake of FC101 (intracellular fluorescence) ([2]; 4 min after addition): minimal increase in cytoplasmic fluorescence | Uptake of FC101 (intracellular fluorescence) ([2]; 20 min after addition): significant increase in intracellular fluorescence | Hydrogen Bond Acceptors [3]: 6 | Hydrogen Bond Donors [3]: 5 | pKa ([3]; amino group on C-3 of the side chain): 8.6 | Uptake of FC101 (intracellular fluorescence) (B16 melanoma cells [4]; 10 sec after addition): immediately entered the cells | Uptake of FC101 (intracellular fluorescence) (B16 melanoma cells [4]; 20 min after addition): stable with no decrease in intracellular drug fluorescence | Log10 P [5]: 1.62 | Cell death (phototoxic effect) on blue light exposure (B16 melanoma cells [6]): undergo cell death | Inhibition of cell growth, tumorigenic versus normal cells (B-16 melanoma cells): preferential inhibition of tumorigenic B-16 melanoma cells | Log10 D7.6 [7]: 0.38

Source: US9132280B2, “Use of fusarochromanone and its derivatives in the diagnosis and treatment of cancer and other diseases” (University of South Carolina, priority 2008, dated 2015)
